The source of these data is US8653122B2, “Oromucosal formulation and process for preparing the same” (Santhera Pharmaceuticals (Switzerland) Ltd., priority 2002, dated 2014).

Data set [1] is described as follows: Plasma levels of fipamezole in healthy male volunteers after a single 30 mg dose (oral, oromucosal tablet, oromucosal spray). The following applies: for AUC(0-inf) / Cmax / Tmax: human, plasma; for AUC(0-inf) / Cmax / t1/2el: mean. Format: in vivo, human. The method, then:
Plasma levels of fipamezole were studied in healthy male volunteers after oral administration of the drug as a solution. Blood samples for pharmcokinetic evaluation were collected for 24 hours after the drug administration. The concentration of fipamezole in plasma was measured with HPLC-MS/MS, and the pharmacokinetic parameters were calculated. The pharmacokinetics of fipamezole was evaluated with TopFit 2.0 pharmacokinetic program. The Cmax and tmax values were read from the concentration vs. time curves, and the apparent elimination phase half-lives from the terminal part of the semilogarithmic concentration vs. time curve (see FIG. 1). AUC values were calculated both to infinity and up to the last collection time with quantifiable fipamezole concentration. Mean plasma concentration time plot following single dose administration of 30 mg fipamezole via an oral, oromucosal spray and an oromucosal tablet on a semilogarithmic scale is shown in FIG. 1.

For data set [2], the system named is dogs. Put plainly: 30-day dog toxicology study using oral dosing (cardiac safety). Format: in vivo. As to conditions: for maximum systemic fipamezole concentration: oral. How it is done: (§1) Cardiac safety was studied in dogs in a 30-day dog toxicology study using oral dosing and dog toxicology studies using buccal dosing.
In the 30-day dog toxicology study fipamezole was administered orally at doses of 1, 5, 10 and 15 mg/kg/day for 30 days, resulting in maximum systemic fipamezole concentrations of about 200, 1000, 2000 and 3300 ng/ml, respectively.

Data set [3] relates to dogs. Description: Dog toxicology study, buccal spray, sequential dosing regimen (blood pressure, heart rate, ECG). Format: in vivo. The method, then:
as §1
In another toxicology study four male dogs were given fipamezole in buccal spray doses of 1, 5 and 10 mg/kg in a sequential dosing regimen with 5 to 15 days between doses. Blood pressure (systolic, diastolic and mean), heart rate and ECGs were monitored before and up to 12 hours after dosing.

The test system of data set [4] is dogs. Description: Dog toxicology study using buccal delivery for up to 4 weeks. Format: in vivo. As to conditions: for maximum systemic concentration of fipamezole: buccal, first day. How it is done: as §1
Maximum systemic concentrations of fipamezole after dosing on the first day of this study were about 800, 2000 and 3300 ng/ml.

The mark [5] stands for this setting: other: oromucosal spray, oromucosal spray.
The mark [6] stands for this setting: other: oromucosal tablet, oromucosal tablet.
The mark [7] stands for this setting: buccal spray 5 and 10 mg/kg, 30 minutes after dosing.

Structures are written as SMILES.

As for `CCC1(c2c[nH]cn2)Cc2ccc(F)cc2C1.Cl` (stereo not drawn) [fipamezole, 4-(2-ethyl-5-fluoroindan-2-yl)-1H-imidazole hydrochloride], the figures for the AUC(0-inf) in data set [1] (oral (solution)), in data set [1] (setting [5]) and in data set [1] (setting [6]) were 7.65 ng·h/mL, 157 ng·h/mL and 116 ng·h/mL, respectively. Moreover, the peak concentration (Cmax) in data set [1] (oral (solution)) was 1.59 ng/mL; in data set [1] (setting [5]), 49.2 ng/mL; in data set [1] (setting [6]), 31.7 ng/mL. The Tmax was 1 h in data set [1] (oral (solution), median); 0.7 h in data set [1] (other: oromucosal spray, oromucosal spray, median); 0.85 h in data set [1] (setting [6]). In addition, the t1/2el in data set [1] (oral (solution)) was determined as 3.10 h; in data set [1] (oromucosal spray) it was 2.10 h; in data set [1] (oromucosal tablet), 3.10 h. Also, the “systemic concentration of fipamezole at which QT prolongation was observed” value in the data set with dogs [2] (high oral doses, 30-day study) is on record as “about 2000 ng/ml”. Besides, the “maximum systemic fipamezole concentration” value is “about 200 ng/ml” with dogs [2] (1 mg/kg/day for 30 days), ~1000 ng/mL with dogs [2] (5 mg/kg/day for 30 days), “about 2000 ng/ml” in the data set with dogs [2] (10 mg/kg/day for 30 days) and ~3300 ng/mL with dogs [2] (15 mg/kg/day for 30 days). In the data set with dogs [3] (buccal spray 1, 5 and 10 mg/kg, each dose level, up to 12 hours after dosing), the “ECG changes (P wave amplitude, P wave duration, P-Q interval, QRS interval or Q-T interval)” value is “No ECG changes”. Besides, in the data set on dogs [3] (setting [7]), the “blood pressure (absolute values)” value is “significant transient increases”. The “heart rate (absolute values)” value in the data set on dogs [3] (setting [7]) is recorded as “significant transient increases”. The “changes in ECG” value with dogs [4] (buccal delivery 1, 5 and 10 mg/kg/day for up to 4 weeks) is on record as “no apparent changes in ECG”. Also, the “maximum systemic concentration of fipamezole” value in the data set on dogs [4] (1 mg/kg/day) is “about 800 ng/ml”; in the data set on dogs [4] (5 mg/kg/day), ~2000 ng/mL; in the data set with dogs [4] (10 mg/kg/day) it was ~3300 ng/mL.

In general, AUC(0-inf) refers to the area under the concentration-time curve extrapolated to infinity. A low value points to low exposure. The Cmax is the peak of the concentration-time curve. As a reminder, the Tmax is the time from dosing to the highest level.
